In ChEMBL document CHEMBL1125227, “Potential antitumor agents. 62. Structure-activity relationships for tricyclic compounds related to the colon tumor active drug 9-oxo-9H-xanthene-4-acetic acid” (J Med Chem, 1991):

Assays:
Type in all cases: functional, organism-based
Settings in all cases: Mus musculus
MC-38 [1] = assay: In Vivo antitumor effect on subcutaneously implanted C38 colon tumor in mice and examined by histopathology and compared with control.(+ = 50-90% hemorrhagic necrosis response) at optimal dose of 750 (mg/kg)
MC-38 [2] = assay: In Vivo antitumor effect on subcutaneously implanted C38 colon tumor in mice and examined by histopathology and compared with control.( - = <50% hemorrhagic response) at optimal dose of 750 (mg/kg)
MC-38 [3] = assay: In Vivo antitumor effect on subcutaneously implanted C38 colon tumor in mice and examined by histopathology and compared with control.( + = 50-90% hemorrhagic necrosis response) at optimal dose of 750 (mg/kg)
MC-38 [4] = assay: In Vivo antitumor effect on subcutaneously implanted C38 colon tumor in mice and examined by histopathology and compared with control.( - = <50% hemorrhagic response) at optimal dose of 330 (mg/kg)
MC-38 [5] = assay: In Vivo antitumor effect on subcutaneously implanted C38 colon tumor in mice and examined by histopathology and compared with control.( ++ = >90% hemorrhagic necrosis response) at optimal dose of 220 (mg/kg)
MC-38 [6] = assay: In Vivo antitumor effect on subcutaneously implanted C38 colon tumor in mice and examined by histopathology and compared with control.( - = <50% hemorrhagic response) at optimal dose of 500 (mg/kg)
MC-38 [7] = assay: In Vivo antitumor effect on subcutaneously implanted C38 colon tumor in mice and examined by histopathology and compared with control.( + = 50-90% hemorrhagic necrosis response) at optimal dose of 500 (mg/kg)

Structure (SMILES) | Activity (MC-38 [2]) | further results
O=C(O)Cc1cccc2c1C(=O)c1ccccc1C2=O | – | Activity (MC-38 [1]): 50-90% hemorrhagic necrosis response at optimal dose of 750 mg/kg
O=C(O)Cc1cccc2c1Oc1ccccc1CC2=O | <50% hemorrhagic response at optimal dose of 750 mg/kg | –
O=C(O)Cc1cccc2cc3ccccc3cc12 | – | Activity (MC-38 [3]): 50-90% hemorrhagic necrosis response at optimal dose of 750 mg/kg
O=C(O)Cc1cccc2c(=O)c3ccccc3sc12 | – | Activity (MC-38 [4]): <50% hemorrhagic response at optimal dose of 330 mg/kg
O=C(O)Cc1cccc2c1Oc1ccccc1S2(=O)=O | <50% hemorrhagic response at optimal dose of 750 mg/kg | –
O=C(O)Cc1cccc2c1Oc1ccccc1C(=O)C2 | – | Activity (MC-38 [3]): 50-90% hemorrhagic necrosis response at optimal dose of 750 mg/kg
O=C(O)Cc1cccc2c(=O)c3ccccc3[s+]([O-])c12 (stereo unspecified) | <50% hemorrhagic response at optimal dose of 750 mg/kg | –
O=C(O)Cc1cccc2c1Oc1ccccc1S2 | – | Activity (MC-38 [4]): <50% hemorrhagic response at optimal dose of 330 mg/kg
O=C(O)Cc1cccc2c(=O)c3ccccc3oc12 | – | Activity (MC-38 [5]): >90% hemorrhagic necrosis response at optimal dose of 220 mg/kg
O=C(O)Cc1cccc2oc3ccccc3c12 | <50% hemorrhagic response at optimal dose of 750 mg/kg | –
O=C(O)Cc1cccc2c1Oc1ccccc1O2 | <50% hemorrhagic response at optimal dose of 750 mg/kg | –
O=C(O)Cc1cccc2c1Oc1ccccc1[S+]2[O-] (stereo unspecified) | <50% hemorrhagic response at optimal dose of 750 mg/kg | –
O=C(O)Cc1cccc2nc3ccccc3nc12 | <50% hemorrhagic response at optimal dose of 750 mg/kg | –
O=C(O)Cc1cccc2c1Oc1ccccc1C2 | – | Activity (MC-38 [6]): <50% hemorrhagic response at optimal dose of 500 mg/kg
O=C(O)Cc1cccc2c1oc1ccccc12 | – | Activity (MC-38 [7]): 50-90% hemorrhagic necrosis response at optimal dose of 500 mg/kg
O=C(O)Cc1cccc2c1S(=O)(=O)c1ccccc1C2=O | <50% hemorrhagic response at optimal dose of 750 mg/kg | –
